Laboratory results reported in the NIST ThermoML archive (doi:10.1016/j.tca.2013.02.022).
± gives the expanded uncertainty stated by the source.

Test: cn = amount concentration of the nth substance listed, in mol/dm3
Conditions: 298.15 K, 101 kPa, Liquid, Alternating current cell with electrodes

`CCn1cc[n+](C)c1.[Br-]` [1-ethyl-3-methylimidazolium bromide] + CC#N gave a molar conductivity (c1 = 0.000941) of 0.0155 ± 0.00032 S·m2/mol, a molar conductivity (c1 = 0.001725) of 0.0152 ± 0.00031 S·m2/mol and a molar conductivity (c1 = 0.002388) of 0.015 ± 0.00031 S·m2/mol. For the same molecule, the molar conductivity (c1 = 0.002957) was 0.0149 ± 0.0003 S·m2/mol, the molar conductivity (c1 = 0.003994) was 0.0146 ± 0.0003 S·m2/mol and the molar conductivity (c1 = 0.0046) was 0.0145 ± 0.00029 S·m2/mol. It also gave a molar conductivity (c1 = 0.005175) of 0.0144 ± 0.00029 S·m2/mol, a molar conductivity (c1 = 0.005645) of 0.0143 ± 0.00029 S·m2/mol and a molar conductivity (c1 = 0.006038) of 0.0143 ± 0.00029 S·m2/mol. For the same molecule, the molar conductivity (c1 = 0.006369) was 0.0142 ± 0.00029 S·m2/mol, the molar conductivity (c1 = 0.006654) was 0.0142 ± 0.00028 S·m2/mol and the molar conductivity (c1 = 0.007011) was 0.0141 ± 0.00028 S·m2/mol. For the same molecule, the molar conductivity (c1 = 0.007656) was 0.014 ± 0.00028 S·m2/mol, the molar conductivity (c1 = 0.007998) was 0.0139 ± 0.00028 S·m2/mol and the molar conductivity (c1 = 0.008433) was 0.0139 ± 0.00028 S·m2/mol.

For `CCn1cc[n+](C)c1.[Br-]` [1-ethyl-3-methylimidazolium bromide] + CC(=O)N(C)C, the molar conductivity (c1 = 0.000995) was 0.00429 ± 0.00011 S·m2/mol, the molar conductivity (c1 = 0.001858) was 0.004 ± 0.00011 S·m2/mol and the molar conductivity (c1 = 0.002527) was 0.00377 ± 9.4e-05 S·m2/mol. For the same molecule, the molar conductivity (c1 = 0.003129) was 0.00364 ± 8.3e-05 S·m2/mol, the molar conductivity (c1 = 0.003697) was 0.00354 ± 7.8e-05 S·m2/mol and the molar conductivity (c1 = 0.004106) was 0.00348 ± 8.4e-05 S·m2/mol. For the same molecule, the molar conductivity (c1 = 0.004509) was 0.00335 ± 8.4e-05 S·m2/mol, the molar conductivity (c1 = 0.005187) was 0.0032 ± 7.7e-05 S·m2/mol and the molar conductivity (c1 = 0.005736) was 0.00309 ± 7.3e-05 S·m2/mol. For the same molecule, the molar conductivity (c1 = 0.005973) was 0.00305 ± 6.7e-05 S·m2/mol, the molar conductivity (c1 = 0.006388) was 0.003 ± 6.9e-05 S·m2/mol and the molar conductivity (c1 = 0.0073) was 0.00283 ± 6.8e-05 S·m2/mol. For the same molecule, the molar conductivity (c1 = 0.007821) was 0.00273 ± 6.1e-05 S·m2/mol, the molar conductivity (c1 = 0.008279) was 0.0027 ± 6.4e-05 S·m2/mol and the molar conductivity (c1 = 0.008995) was 0.00254 ± 6.8e-05 S·m2/mol.

With `CCn1cc[n+](C)c1.[Br-]` [1-ethyl-3-methylimidazolium bromide] + CN(C)C=O the molar conductivity (c1 = 0.001828) was 0.00732 ± 0.00016 S·m2/mol, the molar conductivity (c1 = 0.002531) was 0.0071 ± 0.00016 S·m2/mol and the molar conductivity (c1 = 0.003133) was 0.0069 ± 0.00015 S·m2/mol. It also gave a molar conductivity (c1 = 0.003655) of 0.00675 ± 0.00014 S·m2/mol, a molar conductivity (c1 = 0.004225) of 0.00667 ± 0.00014 S·m2/mol and a molar conductivity (c1 = 0.004874) of 0.00652 ± 0.00014 S·m2/mol. It also gave a molar conductivity (c1 = 0.005483) of 0.00643 ± 0.00013 S·m2/mol, a molar conductivity (c1 = 0.005981) of 0.0063 ± 0.00013 S·m2/mol and a molar conductivity (c1 = 0.006397) of 0.00622 ± 0.00013 S·m2/mol. The molar conductivity (c1 = 0.006905) was 0.00616 ± 0.00013 S·m2/mol, the molar conductivity (c1 = 0.007429) was 0.0061 ± 0.00013 S·m2/mol and the molar conductivity (c1 = 0.007833) was 0.00604 ± 0.00013 S·m2/mol. It also gave a molar conductivity (c1 = 0.008291) of 0.00593 ± 0.00013 S·m2/mol, a molar conductivity (c1 = 0.008681) of 0.00587 ± 0.00012 S·m2/mol and a molar conductivity (c1 = 0.009008) of 0.00584 ± 0.00012 S·m2/mol.

Molecule `CCn1cc[n+](C)c1.[Br-]` [1-ethyl-3-methylimidazolium bromide] + CO has a molar conductivity (c1 = 0.001828) of 0.00814 ± 0.00017 S·m2/mol, a molar conductivity (c1 = 0.002264) of 0.00804 ± 0.00017 S·m2/mol and a molar conductivity (c1 = 0.002683) of 0.00795 ± 0.00016 S·m2/mol. It also gave a molar conductivity (c1 = 0.003262) of 0.00784 ± 0.00016 S·m2/mol, a molar conductivity (c1 = 0.003528) of 0.00779 ± 0.00016 S·m2/mol and a molar conductivity (c1 = 0.004007) of 0.00771 ± 0.00016 S·m2/mol. It also gave a molar conductivity (c1 = 0.004303) of 0.00765 ± 0.00016 S·m2/mol, a molar conductivity (c1 = 0.004622) of 0.0076 ± 0.00015 S·m2/mol and a molar conductivity (c1 = 0.004858) of 0.00757 ± 0.00015 S·m2/mol. The molar conductivity (c1 = 0.005093) was 0.00753 ± 0.00015 S·m2/mol, the molar conductivity (c1 = 0.005282) was 0.0075 ± 0.00015 S·m2/mol and the molar conductivity (c1 = 0.005565) was 0.00746 ± 0.00015 S·m2/mol. It also gave a molar conductivity (c1 = 0.005822) of 0.00743 ± 0.00015 S·m2/mol, a molar conductivity (c1 = 0.006122) of 0.00739 ± 0.00015 S·m2/mol and a molar conductivity (c1 = 0.006338) of 0.00736 ± 0.00015 S·m2/mol.

`CCn1cc[n+](C)c1.[Br-]` [1-ethyl-3-methylimidazolium bromide] + C[S+](C)[O-] showed a molar conductivity (c1 = 0.002105) of 0.00246 ± 5.5e-05 S·m2/mol, a molar conductivity (c1 = 0.003858) of 0.00225 ± 5e-05 S·m2/mol and a molar conductivity (c1 = 0.005342) of 0.00209 ± 4.6e-05 S·m2/mol. It also gave a molar conductivity (c1 = 0.006614) of 0.00198 ± 4.3e-05 S·m2/mol, a molar conductivity (c1 = 0.007717) of 0.0019 ± 4.1e-05 S·m2/mol and a molar conductivity (c1 = 0.008681) of 0.00182 ± 3.9e-05 S·m2/mol. For the same molecule, the molar conductivity (c1 = 0.009532) was 0.00177 ± 3.8e-05 S·m2/mol, the molar conductivity (c1 = 0.01097) was 0.00166 ± 3.6e-05 S·m2/mol and the molar conductivity (c1 = 0.01213) was 0.00158 ± 3.4e-05 S·m2/mol. The molar conductivity (c1 = 0.0135) was 0.0015 ± 3.2e-05 S·m2/mol, the molar conductivity (c1 = 0.01458) was 0.00144 ± 3.1e-05 S·m2/mol and the molar conductivity (c1 = 0.01614) was 0.00136 ± 2.9e-05 S·m2/mol. For the same molecule, the molar conductivity (c1 = 0.01721) was 0.0013 ± 2.8e-05 S·m2/mol, the molar conductivity (c1 = 0.01812) was 0.00126 ± 2.7e-05 S·m2/mol and the molar conductivity (c1 = 0.01902) was 0.00122 ± 2.6e-05 S·m2/mol.
